Target: T1, phospho p-38 alpha kinase (Homo sapiens, UniProt Q16539)
T1 construct: purchased Panvera
Assay: P-38 alpha kinase assay (spectrophotometric, pyruvate kinase/lactate dehydrogenase coupled)
Assay type: biochemical
Conditions: for inhibition at 10 µM / inhibition at 2 µM / inhibition at 0.1 µM / inhibition at 1 µM: read-out: % Inhibition @ concentration, Table 3; for IC50: Table 3, rates from […] to 2 h time frame
Protocol: In this assay, the oxidation of NADH was continuously measured spectrophometrically. […] The reaction was initiated by adding ATP. The absorption at 340 nm was monitored continuously for up to 4 hours at 30° C. on Polarstar Optima plate reader (BMG). The kinase activity (reaction rate) was calculated from the slope at the time frame from 1.5 h to 2 h.
For inhibition determinations, test compounds were incubated with the reaction mixture for ˜5 min before adding ATP to start the reaction. […] IC50 values were calculated from a series of % inhibition values determined at a range of concentrations of each inhibitor using Prism to process the data and fit inhibition curves. Generally, the rates obtained at the time frame of 1.5 h to 2 h were used for these calculations.

T1 sequence (Q16539 whole entry): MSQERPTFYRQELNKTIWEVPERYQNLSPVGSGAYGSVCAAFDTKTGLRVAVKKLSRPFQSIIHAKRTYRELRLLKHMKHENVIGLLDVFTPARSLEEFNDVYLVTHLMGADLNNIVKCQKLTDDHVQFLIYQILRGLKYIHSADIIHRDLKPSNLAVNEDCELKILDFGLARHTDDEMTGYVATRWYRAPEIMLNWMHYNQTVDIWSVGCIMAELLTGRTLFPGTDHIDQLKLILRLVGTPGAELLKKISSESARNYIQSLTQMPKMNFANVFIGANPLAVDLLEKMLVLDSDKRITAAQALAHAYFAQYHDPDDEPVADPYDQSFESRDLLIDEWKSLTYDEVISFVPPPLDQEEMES

Row | Compound | IC50 | further results
1 | COc1cccc(-n2nc(C)cc2NC(=O)Nc2cccc(Br)c2)c1 [Example 337, 1-(3-bromophenyl)-3-(1-(3-methoxyphenyl)-3-methyl-1H-pyrazol-5-yl)urea] |  | inhibition at 10 µM: 8%
2 | COc1cccc(-n2nc(C)cc2NC(=O)Nc2cccc(C(F)(F)F)c2)c1 [Example 338, 1-(1-(3-methoxyphenyl)-3-methyl-1H-pyrazol-5-yl)-3-(3-(trifluoromethyl)phenyl)urea] |  | inhibition at 2 µM: 7%
3 | COc1cccc(NC(=O)Nc2cc(C)nn2-c2cccc(OC)c2)c1 [Example 339, 1-(3-methoxyphenyl)-3-(1-(3-methoxyphenyl)-3-methyl-1H-pyrazol-5-yl)urea] |  | inhibition at 2 µM: 9%
4 | COc1cccc(-n2nc(C)cc2NC(=O)Nc2cccc(Cl)c2Cl)c1 [Example 340, 1-(2,3-dichlorophenyl)-3-(1-(3-methoxyphenyl)-3-methyl-1H-pyrazol-5-yl)urea] |  | inhibition at 10 µM: 31%
5 | COc1cccc(-n2nc(C(F)(F)F)cc2NC(=O)Nc2cccc3ccccc23)c1 [Example 342, 1-(3-(trifluoromethyl)-1-(3-methoxyphenyl)-1H-pyrazol-5-yl)-3-(naphthalen-1-yl)urea] | 1000 nM | 
6 | COc1cccc(-n2nc(C(C)(C)C)cc2NC(=O)Nc2ccccc2F)c1 [Example 344, 1-[3-t-butyl-1-(3-methoxy-phenyl)-1H-pyrazol-5-yl]-3-(2-fluorophenyl)urea] | 180 nM | 
7 | COc1cccc(-n2nc(C(C)(C)C)cc2NC(=O)Nc2cccc(F)c2F)c1 [Example 345, 1-[3-t-butyl-1-(3-methoxy-phenyl)-1H-pyrazol-5-yl]-3-(2,3-difluorophenyl)urea] | 270 nM | 
8 | COc1ccc(-n2nc(C(C)(C)C)cc2NC(=O)Nc2ccccc2F)cc1 [Example 346, 1-[3-t-butyl-1-(4-methoxyphenyl)-1H-pyrazol-5-yl]-3-(2-fluorophenyl)urea] |  | inhibition at 0.1 µM: 19%; inhibition at 1 µM: 63%
9 | COc1ccc(-n2nc(C(C)(C)C)cc2NC(=O)Nc2cccc(C(F)(F)F)c2)cc1 [Example 347, 1-[3-t-butyl-1-(4-methoxyphenyl)-1H-pyrazol-5-yl]-3-(3-trifluoromethylphenyl)urea] |  | inhibition at 0.1 µM: 8%; inhibition at 1 µM: 31%
10 | COc1ccc(-n2nc(C(C)(C)C)cc2NC(=O)Nc2cccc(OC)c2)cc1 [Example 348, 1-[3-t-butyl-1-(4-methoxyphenyl)-1H-pyrazol-5-yl]-3-(3-methoxy-phenyl)urea] |  | inhibition at 0.1 µM: 17%; inhibition at 1 µM: 47%
11 | COc1ccc(-n2nc(C(C)(C)C)cc2NC(=O)Nc2cccc(Cl)c2)cc1 [Example 350, 1-[3-t-butyl-1-(4-methoxyphenyl)-1H-pyrazol-5-yl]-3-(3-chlorophenyl)urea] |  | inhibition at 0.1 µM: 39%; inhibition at 1 µM: 64%
12 | CC(C)(C)c1cc(NC(=O)Nc2ccccc2F)n(-c2cccc(CC(N)=O)c2)n1 [Example 352, 1-{1-[3-(2-amino-2-oxoethyl)phenyl]-3-t-butyl-1H-pyrazol-5-yl}-3-(2-fluorophenyl)urea] | 43 nM | 
13 | CC(C)(C)c1cc(NC(=O)Nc2cccc(F)c2F)n(-c2cccc(C#N)c2)n1 [Example 355, 1-[3-t-butyl-1-(3-cyan-phenyl)-1H-pyrazol-5-yl]-3-(2,3-difluorophenyl)urea] | 42 nM | 
14 | CC(C)(C)c1cc(NC(=O)Nc2cccc(Br)c2)n(-c2cccc(C#N)c2)n1 [Example 356, 1-(3-t-butyl-1-(3-cyanophenyl)-1H-pyrazol-5-yl)-3-(3-bromophenyl)urea] | 59 nM | 
15 | CC(C)(C)c1cc(NC(=O)Nc2ccc3c(c2)OCO3)n(-c2cccc(C#N)c2)n1 [Example 357, 1-(benzo[d][1,3]dioxol-5-yl)-3-(3-t-butyl-1-(3-cyanophenyl)-1H-pyrazol-5-yl)urea] | 130 nM | 
16 | CC(C)(C)c1cc(NC(=O)Nc2ccc(Cl)cc2)n(-c2cccc(C#N)c2)n1 [Example 358, 1-(3-t-butyl-1-(3-cyanophenyl)-1H-pyrazol-5-yl)-3-(4-chlorophenyl)urea] | 100 nM | 
17 | CC(C)(C)c1cc(NC(=O)Nc2cccc(Cl)c2Cl)n(-c2cccc(C#N)c2)n1 [Example 359] | 13 nM | 
18 | COc1cccc(NC(=O)Nc2cc(C(C)(C)C)nn2-c2cccc(C#N)c2)c1 [Example 360] | 390 nM | 
19 | CC(C)(C)c1cc(NC(=O)Nc2cccc(C(F)(F)F)c2)n(-c2cccc(C#N)c2)n1 [Example 361] | 870 nM | 
20 | CC(C)(C)c1cc(NC(=O)Nc2ccccc2F)n(-c2cccc(CCC(=O)O)c2)n1 [Example 363, 3-(3-{3-t-butyl-5-[3-(2-fluorophenyl)ureido]-11H-pyrazol-1-yl}-phenyl)propionic acid] | 190 nM | 

Row | Compound | IC50 | further results
21 | CCOC(=O)CCc1cccc(-n2nc(C(C)(C)C)cc2NC(=O)Nc2cccc(Cl)c2Cl)c1 [Example 364, 3-(3-{3-t-butyl-5-[3-(2,3-dichlorophenyl)ureido]-1H-pyrazol-1-yl}phenyl)propionic acid ethyl ester] | 10 nM | 
22 | CC(C)(C)c1cc(NC(=O)Nc2cccc(Cl)c2Cl)n(-c2cccc(CCC(=O)O)c2)n1 [Example 365, 3-(3-{3-t-Butyl-5-[3-(2,3-dichloro-phenyl)ureido]-1H-pyrazol-1-yl}-phenyl)propionic acid] | 7 nM | 
23 | CCOC(=O)CCc1cccc(-n2nc(C(C)(C)C)cc2NC(=O)Nc2cccc3cccnc23)c1 [Example 366, 3-(3-{3-t-butyl-5-[3-(quinolin-8-yl)ureido]-1H-pyrazol-1-yl}phenyl)-propionic acid ethyl ester] |  | inhibition at 10 µM: 53%
24 | CC(C)(C)c1cc(NC(=O)Nc2cccc3cccnc23)n(-c2cccc(CCC(=O)O)c2)n1 [Example 367, 3-(3-{3-t-butyl-5-[3-(quinolin-8-yl)ureido]-1H-pyrazol-1-yl}phenyl)-propionic acid] |  | inhibition at 10 µM: 85%
25 | CN(C)CCc1cccc(-n2nc(C(C)(C)C)cc2NC(=O)Nc2ccc(Cl)cc2)c1 [Example 372, 1-{3-t-butyl-1-[3-(2-(dimethylamino)ethyl]phenyl}-1H-pyrazol-5-yl)-3-(4-chlorophenyl)urea] | 1460 nM | 
26 | CC(C)(C)c1cc(NC(=O)Nc2cccc(Cl)c2Cl)n(-c2cccc(CCN)c2)n1 [Example 374, 1-{1-[3-(2-aminoethyl)phenyl]-3-t-butyl-1H-pyrazol-5-yl}-3-(2,3-dichlorophenyl)urea] | 37 nM | 
27 | CC(C)(C)c1cc(NC(=O)Nc2cccc(Br)c2)n(-c2cccc(CCN)c2)n1 [Example 376, 1-{1-[3-(2-aminoethyl)phenyl]-3-t-butyl-1H-pyrazol-5-yl}-3-(3-bromophenyl)urea] | 480 nM | 
28 | CC(C)(C)c1cc(NC(=O)Nc2cccc(Cl)c2)n(-c2cccc(CCN)c2)n1 [Example 378, 1-{1-[3-(2-aminoethyl)phenyl]-3-t-butyl-1H-pyrazol-5-yl}-3-(3-chlorophenyl)urea] | 400 nM | 
29 | CC(C)(C)c1cc(NC(=O)Nc2cccc(C(F)(F)F)c2)n(-c2cccc(CCN)c2)n1 [Example 380, 1-{1-[3-(2-aminoethyl)phenyl]-3-t-butyl-1H-pyrazol-5-yl}-3-[3-(trifluoromethyl)phenyl]urea] | 2000 nM | 
30 | COc1cccc(NC(=O)Nc2cc(C(C)(C)C)nn2-c2cccc(CCN)c2)c1 [Example 382, 1-{1-[3-(2-aminoethyl)phenyl]-3-t-butyl-1H-pyrazol-5-yl}-3-(3-methoxyphenyl)urea] | 880 nM | 
31 | CN(C)CCc1cccc(-n2nc(C(C)(C)C)cc2NC(=O)Nc2cccc(Cl)c2Cl)c1 [Example 383, 1-(3-t-butyl-1-{3-[2-(dimethylamino)ethyl]phenyl}-1H-pyrazol-5-yl)-3-(2,3-di-chlorophenyl)urea] | 100 nM | 
32 | CC(C)(C)c1cc(NC(=O)Nc2cccc(Br)c2)n(-c2cccc(CN)c2)n1 [Example 384, 1-{1-[3-(aminomethyl)phenyl]-3-t-butyl-1H-pyrazol-5-yl}-3-(3-bromophenyl)urea] |  | inhibition at 1 µM: 72%; inhibition at 10 µM: 96%
33 | CC(C)(C)c1cc(NC(=O)Nc2cccc(Cl)c2)n(-c2cccc(C#N)c2)n1 [Example 385, 1-(3-t-butyl-1-(3-cyanophenyl)-1H-pyrazol-5-yl)-3-(3-chlorophenyl)urea] | 30 nM | 
34 | CC(C)(C)c1cc(NC(=O)Nc2cccc(Cl)c2)n(-c2cccc(CN)c2)n1 [Example 386, 1-{1-[3-(aminomethyl)phenyl]-3-t-butyl-1H-pyrazol-5-yl}-3-(3-chloro-phenyl)urea] | 114 nM | 
35 | CC(C)(C)c1cc(NC(=O)Nc2cccc(C(F)(F)F)c2)n(-c2cccc(CN)c2)n1 [Example 387, 1-{1-[3-(aminomethyl)phenyl]-3-t-butyl-1H-pyrazol-5-yl}-3-(3-(trifluoro-methyl)phenyl)urea] | 4450 nM | 
36 | COc1cccc(NC(=O)Nc2cc(C(C)(C)C)nn2-c2cccc(CN)c2)c1 [Example 388, 1-{1-[3-(aminomethyl)phenyl]-3-t-butyl-1H-pyrazol-5-yl}-3-(3-methoxy-phenyl)urea] | 1650 nM | 
37 | CC(C)(C)c1cc(NC(=O)Nc2ccc(Cl)cc2)n(-c2cccc(CN)c2)n1 [Example 390, 1-{1-[3-(aminomethyl)phenyl]-3-t-butyl-1H-pyrazol-5-yl}-3-(4-chloro-phenyl)urea] |  | inhibition at 0.1 µM: 24%; inhibition at 1 µM: 63%
38 | CC(C)(C)c1cc(NC(=O)Nc2ccc3c(c2)OCO3)n(-c2cccc(CN)c2)n1 [Example 391, 1-{1-[3-(aminomethyl)phenyl]-3-t-butyl-1H-pyrazol-5-yl}-3-(benzo-[d][1,3]dioxol-5-yl)urea] | 910 nM | 
39 | CC(C)(C)c1cc(NC(=O)Nc2cccc(Cl)c2Cl)n(-c2cccc(C(N)=O)c2)n1 [Example 392, 1-[3-t-butyl-1-(3-carbamoylphenyl)-1H-pyrazol-5-yl]-3-(2,3-dichlorophenyl)urea] |  | inhibition at 0.1 µM: 75%; inhibition at 1 µM: 86%
